The text below walks through data of US20260274814A1, “THIENYL COMPOUNDS FOR THE TREATMENT OF A CENTRAL NERVOUS SYSTEM DISEASE OR DISORDER” (Coreterra Therapeutics, Inc., priority 2023, published 2026).

One may read the minimal effective dose as the smallest amount tested that counted as effective.

In the experiment the test system is mice. The experiment in a line: Neuropharmacological Assay (SmartCube): automated behavioral signature of compound-treated mice compared with a database of reference drug classes. As to conditions: for minimal effective dose: Mus musculus, ip, read-out: MED (minimal effective dose); for minimal effective dose / MED (minimal effective dose): dose having 45% or more total activity in SmartCube, i.p., if only one dose was tested, that dose is shown; for AD / AG / AN / AP / AX / CE / HL / MS / PS / SH / UK: probability that activity matches this class of agents, 3.0 mg/kg i.p., 15 min before test. In kind it is in vivo. The text has this:
Neurosci. 2011 Sep. 9; 5: 103 (doi: 10.3389/fnins.2011.00103) (“Roberds”). As reported in Roberds, because psychiatric diseases generally result from disorders of cell-cell communication or circuitry, intact systems are useful in detecting improvement in disease-relevant endpoints. These endpoints are typically behavioral in nature, often requiring human observation and interpretation. To facilitate testing of multiple compounds for behavioral effects relevant to psychiatric disease, PsychoGenics, Inc. (Tarrytown, NY, “PGI”) developed SmartCube™ an automated system in which behaviors of compound-treated mice are captured by digital video and analyzed with computer algorithms. (D. Brunner et al. Drug Discov. Today 2002, 7:S107-S112). PGI Analytical Systems uses data from SmartCube™ to compare the behavioral signature of a test compound to a database of behavioral signatures obtained using a large set of diverse reference compounds. (The composition of the database as well as validation of the method is further described in Roberds). In this way, the neuropharmacological effects of a test compound can be predicted by similarity to major classes of compounds, such as antipsychotics, anxiolytics and antidepressants.
The SmartCube™ system produces an activity signature indicating the probability that the activity of the test compound at the administered dose matches a given class of neuropharmacological agents. (See, e.g., Roberds, FIGS. 2 and 3). The test compound is simultaneously compared against multiple classes of agents; thus, a separate probability is generated for each behavioral effect measured (e.g., anxiolytic activity, analgesic activity, etc.). In table 2 below, these probabilities are reported for each behavioral effect measured as described in Table 1 below.
Provided compounds were dissolved in a mixture of Pharmasolve™ (N-methyl-2-pyrrolidone), polyethylene glycol and propylene glycol, and were injected i.p. 15 min. before the behavioral test. For each compound, injections were administered at 3 different doses. For each behavioral effect measured, results for the 3.0 mg/kg dose are presented. The potency of many of the compounds in the table was also determined in the SmartCube™ system. Test compounds were routinely examined at dose levels of 0.3, 1, 3 and 10 mg per kg (mpk), although the dose range was increased or decreased, if necessary, to obtain a full dose response curve. A compound's minimal effective dose (MED) is a measure of the compound's potency. The MED was defined as the dose (in mpk) having 45% or more total activity in SmartCube. If only one dose was tested, that dose is shown in the MED column of Table 2 even though the dose is not known to be the MED.

Each structure is given as a SMILES string. Where a name gives a salt, the structure may show the parent alone.

As for `Cl.c1cc2c(s1)CC(N1CCOCC1)CC2` (single isomer, unassigned) [Compound 22, 4-(4,5,6,7-tetrahydrobenzo[b]thiophen-6-yl)morpholine hydrochloride], the minimal effective dose was above 10 mg/kg, the AD result is “ND (^ <4%)”, the AG entry is given as “ND (^ <4%)” and the AN entry is on record as “ND (^ <4%)”. The AP entry is recorded as “ND (^ <4%)”, the AX result is on record as “ND (^ <4%)”, the CE result was “ND (^ <4%)” and the HL entry is on record as “ND (^ <4%)”. Besides, the MS result was “ND (^ <4%)”, the PS entry was “ND (^ <4%)” and the SH entry was “ND (^ <4%)”. Besides, under “hydrochloride, 3 mg/kg”, the UK entry is recorded as “+ (≥4%)”.

As to `Cl.c1scc2c1CCC(NC1CC1)C2` (single isomer, unassigned) [Compound 125, N-cyclopropyl-4,5,6,7-tetrahydro-2-benzothiophen-5-amine hydrochloride], the AG entry was “ND (^ <4%)”, the AN result is given as “ND (^ <4%)”, the AP entry is given as “ND (^ <4%)” and the AX entry is recorded as “ND (^ <4%)”. For the same compound, the CE entry is given as “ND (^ <4%)”, the HL result is listed as “ND (^ <4%)”, the MS entry is listed as “ND (^ <4%)” and the PS entry is listed as “ND (^ <4%)”. Moreover, the SH entry was “ND (^ <4%)”. The “MED (minimal effective dose)” value (hydrochloride) was 0.3 mpk. Also, under “hydrochloride, 3 mg/kg”, the AD entry is given as “+++ (≥49%)” and the UK result is listed as “ND (^ <4%)”.

With `CNC1CCc2cc(C(F)(F)F)sc2C1` (single isomer, unassigned) [Compound 39, N-methyl-2-(trifluoromethyl)-4,5,6,7-tetrahydrobenzothiophen-6-amine], the “MED (minimal effective dose)” value came out at 3.0 mpk, the AG result is “ND (^ <4%)”, the AN result is on record as “ND (^ <4%)” and the AX entry is recorded as “ND (^ <4%)”. Besides, the CE result is “ND (^ <4%)”, the HL result was “ND (^ <4%)”, the MS entry is “ND (^ <4%)” and the PS entry is “ND (^ <4%)”. The SH result is “ND (^ <4%)”. Moreover, for the setting “3 mg/kg”, the AD entry is listed as “+++ (≥49%)”, the AP entry is on record as “++ (≥24%)” and the UK result is on record as “ND (^ <4%)”.

Turning to `CNC1CCc2scc(C)c2C1.Cl` (single isomer, unassigned) [Compound 69, N, 3-dimethyl-4,5,6,7-tetrahydrobenzothiophen-5-amine hydrochloride], the AD entry was “ND (^ <4%)”, the AG entry is listed as “ND (^ <4%)”, the AN entry was “ND (^ <4%)” and the CE entry was “ND (^ <4%)”. In addition, the HL entry was “ND (^ <4%)”, the MS result is given as “ND (^ <4%)”, the PS result is listed as “ND (^ <4%)” and the SH entry is “ND (^ <4%)”. Also, the “MED (minimal effective dose)” value (hydrochloride) turned out to be 3 mpk. Where the note is “hydrochloride, 3 mg/kg”, the AP entry was “ND (^ <4%)”, the AX result was “ND (^ <4%)” and the UK result was “+++ (≥49%)”.

As to `CNC1CCc2c(sc(C)c2C)C1` (single isomer, unassigned) [Compound 42, N, 2,3-trimethyl-4,5,6,7-tetrahydrobenzothiophen-6-amine hydrochloride], the minimal effective dose is 3 mg/kg, the AD result is reported as “++++ (≥74%)”, the AG entry is given as “ND (^ <4%)” and the AN entry was “ND (^ <4%)”. Further, the AP result is listed as “ND (^ <4%)”, the AX entry is “ND (^ <4%)”, the CE result is recorded as “ND (^ <4%)” and the MS result is listed as “ND (^ <4%)”. Besides, the PS result is “ND (^ <4%)”, the SH entry is listed as “ND (^ <4%)” and the UK entry is listed as “ND (^ <4%)”. The HL entry (hydrochloride, 3 mg/kg) is reported as “ND (^ <4%)”.

Take `CNC1CCc2c(F)csc2C1` (single isomer, unassigned) [Compound 83, 3-fluoro-N-methyl-4,5,6,7-tetrahydrobenzothiophen-6-amine hydrochloride]: the AG entry is “ND (^ <4%)”, the AN result is listed as “ND (^ <4%)”, the HL entry was “ND (^ <4%)” and the MS entry is listed as “ND (^ <4%)”. Moreover, the PS result is reported as “ND (^ <4%)” and the UK entry was “ND (^ <4%)”. The “MED (minimal effective dose)” value (hydrochloride) is recorded as 1 mpk. In addition, where the note is “hydrochloride, 3 mg/kg”, the AD entry is listed as “ND (^ <4%)”, the AP entry is reported as “+++ (≥49%)”, the AX result is reported as “+ (≥4%)” and the CE result is on record as “+ (≥4%)”. The SH result (hydrochloride, 3 mg/kg) was “ND (^ <4%)”.

Regarding `Cl.FC1(F)CC(NC2CCc3cscc3C2)C1` (single isomer, unassigned) [Compound 127, N-(3,3-difluorocyclobutyl)-4,5,6,7-tetrahydro-2-benzothiophen-5-amine hydrochloride], the AD result is “ND (^ <4%)”, the AG result is “ND (^ <4%)”, the AN result was “ND (^ <4%)” and the AP result is “ND (^ <4%)”. Further, the AX result is on record as “ND (^ <4%)”, the CE result is given as “ND (^ <4%)”, the HL entry is on record as “ND (^ <4%)” and the MS result is “ND (^ <4%)”. Also, the PS result was “ND (^ <4%)”, the SH entry is “ND (^ <4%)” and the UK entry was “ND (^ <4%)”. Further, for the setting “hydrochloride”, the “MED (minimal effective dose)” value was 30 mpk.

On to `Cc1cc2c(s1)CC(N(C)C)CC2.Cl` (single isomer, unassigned) [Compound 34, N,N, 2-trimethyl-4,5,6,7-tetrahydrobenzothiophen-6-amine hydrochloride], for which the minimal effective dose was 10 mg/kg, the AD result is given as “ND (^ <4%)”, the AG result is reported as “ND (^ <4%)” and the AN entry is recorded as “ND (^ <4%)”. Further, the AP entry was “ND (^ <4%)”, the AX entry is on record as “ND (^ <4%)”, the CE result is “ND (^ <4%)” and the HL entry was “ND (^ <4%)”. Also, the MS result is listed as “ND (^ <4%)”, the PS result is on record as “ND (^ <4%)”, the SH result was “ND (^ <4%)” and the UK result is given as “++ (≥24%)”.

On to `CNC1(C)CCc2cscc2C1` (single isomer, unassigned; enantiomer 1) [Compound 101, N, 5-dimethyl-6,7-dihydro-4H-2-benzothiophen-5-amine hydrochloride enantiomer 1], for which the “MED (minimal effective dose)” value turned out to be 3 mpk, the AD result is “++++ (≥74%)”, the AG entry is given as “ND (^ <4%)” and the AN result is reported as “ND (^ <4%)”. Besides, the AP result is listed as “ND (^ <4%)”, the AX result is “ND (^ <4%)”, the CE result is given as “ND (^ <4%)” and the HL result is “ND (^ <4%)”. The MS result is on record as “ND (^ <4%)”, the SH result is “ND (^ <4%)” and the UK entry was “ND (^ <4%)”. The PS entry (3 mg/kg) is reported as “ND (^ <4%)”.

Regarding `CNC1CCc2c(csc2F)C1` (single isomer, unassigned) [Compound 76, 1-fluoro-N-methyl-4,5,6,7-tetrahydro-2-benzothiophen-5-amine hydrochloride], the AD entry is reported as “ND (^ <4%)”, the AG result is given as “ND (^ <4%)”, the AN entry is “ND (^ <4%)” and the CE result was “ND (^ <4%)”. Also, the HL result is “ND (^ <4%)”, the MS entry is on record as “ND (^ <4%)”, the PS entry is on record as “ND (^ <4%)” and the SH entry is given as “ND (^ <4%)”. The UK result was “ND (^ <4%)”. In addition, under “hydrochloride”, the “MED (minimal effective dose)” value was found to be 3 mpk. Moreover, under “hydrochloride, 3 mg/kg”, the AP entry is on record as “++ (≥24%)” and the AX result was “++ (≥24%)”.
